{"source": "patent US20120276064A1", "about": "“METHODS AND COMPOSITIONS FOR REJUVENATION AND EXPANSION OF STEM CELLS” (priority 2011, published 2012)", "key": {"[1]": {"tested_on": "myogenin protein expression in young MuSCs", "assay": "Myogenin immunofluorescence analysis of hydrogel-cultured MuSCs", "type": "cell-based, mouse", "settings": "soft hydrogel, 10 μM, one week, compared to control", "protocol": "Myogenin immunofluorescence analysis. MuSCs from young mice were isolated and cultured on 12 kPa hydrogels with either 0.1% DMSO control or 10 μM SB202190. After one week of culture, cells were fixed with 0.5% paraformaldehyde in PBS. Fixed cells were blocked with 20% goat serum and 0.5% Triton X100 in PBS. Cells were stained with anti-myogenin antibody (Santa Cruz Biotechnology, Santa Cruz, Calif.) and then an AlexaFluor594-conjugated secondary antibody (Invitrogen). Nuclei were stained with Topro3 (Invitrogen)the Immunofluorescence images were acquired using a LSM510 laser-scanning confocal microscope (Carl Zeiss Microimaging) with a Plan NeoFluar 20x/0.75NA objective. Digital images were captured using LSM510 software. Images were composed and edited in Photoshop software (Adobe). Background was reduced and contrast was enhanced equivalently across all images of the same stain. Nuclear regions were identified by Topro3 staining using MetaMorph software (Molecular Devices, Sunnyvale, Calif.). Within each nuclear region, the myogenin intensity was integrated using MetaMorph software. Nuclear myogenin intensities from each condition were plotted in a log-scale histogram to establish a threshold defining myogenin-positive cells."}, "[2]": {"tested_on": "functional MuSCs", "assay": "Limiting dilution analysis and model prediction of functional MuSCs", "set-up": "species or system mouse", "text": "Limiting dilution analysis and model prediction. To calculate the effective number of functional MuSCs in any transplanted cell population, the transplant engraftment efficiency was related to the number of cells transplanted (across a range of transplanted cell numbers) using an exponential stem-cell limiting dilution model:\n% engraftment=100%·[1-exp [(βsample)·(# cells transplantedsample)] [eqn. 1]\nwhere β is an exponential coefficient fit from experimental data. This model fit well to experimental data from a variety of cell conditions (R^2=0.89-1.00; see FIG. 16C). Using this model, the number of functional MuSCs (e.g. defined as equivalent to freshly isolated young MuSCs) within any given population can be calculated:\n# Functional MuSCssample=(βSample/βYng,Fresh)˜(# cellssample). [eqn. 2]\nThe number of functional MuSCs arising from the progeny of each MuSC initially seeded in the cell culture experiments can be predicted by taking into account the measured cell proliferation in culture (see FIG. 2D). The transplant engraftment percentage of the cell culture progeny from any starting MuSC cell number can be predicted using the measured cell proliferation data and the fit exponential model parameter β:\nPredicted % engraftment=100%·[1-exp [(βsample)·(starting cell #)·(proliferation fold-changesample)]]. [Eqn. 3]"}, "[3]": {"tested_on": "tibialis anterior muscle of notexin-injured old mice", "assay": "In vivo force measurements after systemic SB202190 administration", "set-up": "species or system mouse", "settings": "5 mg/kg IP, 5 daily injections starting one day after notexin injury, two months post-injury", "protocol": "Systemic SB202190 administration. Old mice were systemically administered SB202190 (5 mg/kg body weight in 0.9% NaCl/H2O) with five daily doses by IP injection starting at one day after NTX injury.\nIn vivo force measurements. Force measurements were performed on tibialis anterior (TA) muscles in vivo in anesthetized mice, as previously described. The hindlimb was shaved and fixed to a frame to immobilize it without compromising the blood supply to the leg. The animal was warmed on an isothermal pad and by heat lamp. A small incision was placed in the skin directly above the TA muscle. The distal tendon was sutured to a thin metal hook and then attached to a force transducer (300C-LR; Aurora Scientific, Aurora, Ontario). Distal tendons from all front lower hindlimb muscles other than TA were cut, leaving TA isolated during attachment to the force transducer. The muscles and tendons were kept moist by periodic wetting with saline (0.9% sodium chloride) solution. […] Muscle force and synchronization pulses were recorded for 2 seconds immediately prior to the stimulation and 3 seconds after the end of the stimulation. […] Data were collected with a PCI-6251 data acquisition card (National Instruments, Austin, Tex.) and analyzed in Matlab. Specific force values were calculated by normalizing the force measurements by the muscle physiological cross-sectional area (PCSA), as described previously: […]"}}, "data": [{"smiles": "Oc1ccc(-c2nc(-c3ccncc3)c(-c3ccc(F)cc3)[nH]2)cc1", "note": "[SB202190]", "values": [{"measurement": "Percentage of myogenin+ cells", "setting": "[1]", "result": "greatly diminished"}, {"measurement": "Proportion of functional MuSCs", "setting": "[2]; old MuSCs on soft hydrogels with SB treatment, limiting dilution model", "result": 9, "unit": "%"}, {"measurement": "Predicted transplant engraftment of the culture progeny of 10 old MuSCs", "setting": "[2]; old MuSCs treated with SB, model prediction", "result": 76, "unit": "%"}, {"measurement": "Increase in absolute number of functional stem cells relative to freshly isolated old MuSCs", "setting": "[2]; old MuSCs, soft hydrogel + SB, one week, mathematical modeling", "result": 7, "unit": "fold"}, {"measurement": "Improvement in the proportion of functional MuSCs", "setting": "[2]; old MuSCs, soft hydrogel with vs without SB, limiting dilution model", "result": 10, "unit": "fold"}, {"measurement": "Recovery of twitch and tetanus forces", "setting": "[3]", "result": "aided recovery"}]}]}
